The target of one data set is T1, Endothelin-1 receptor (Sus scrofa, UniProt Q29010).
T1 sequence (Q29010 whole entry): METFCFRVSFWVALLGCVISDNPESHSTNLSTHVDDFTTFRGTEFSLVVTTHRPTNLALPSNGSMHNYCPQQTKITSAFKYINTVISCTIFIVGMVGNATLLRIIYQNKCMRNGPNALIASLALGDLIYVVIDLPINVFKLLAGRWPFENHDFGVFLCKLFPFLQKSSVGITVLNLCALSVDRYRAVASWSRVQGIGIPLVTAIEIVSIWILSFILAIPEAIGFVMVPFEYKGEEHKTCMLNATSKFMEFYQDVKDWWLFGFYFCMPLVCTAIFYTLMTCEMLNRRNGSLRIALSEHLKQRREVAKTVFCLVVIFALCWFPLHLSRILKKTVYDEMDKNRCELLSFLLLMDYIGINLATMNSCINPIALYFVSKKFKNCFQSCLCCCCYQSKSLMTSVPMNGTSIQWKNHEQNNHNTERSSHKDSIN
Description: In vitro inhibition of [125 I]ET-1 binding to Endothelin A receptor in porcine aortic membrane. Type of data set: cell membranes.

Data set [1] can be described thus: Water solubility at pH 7.4. Format: physicochemical.
In data set [2] the target is T2, Endothelin receptor type B (Rattus norvegicus, UniProt P21451).
T2 sequence (P21451 whole entry): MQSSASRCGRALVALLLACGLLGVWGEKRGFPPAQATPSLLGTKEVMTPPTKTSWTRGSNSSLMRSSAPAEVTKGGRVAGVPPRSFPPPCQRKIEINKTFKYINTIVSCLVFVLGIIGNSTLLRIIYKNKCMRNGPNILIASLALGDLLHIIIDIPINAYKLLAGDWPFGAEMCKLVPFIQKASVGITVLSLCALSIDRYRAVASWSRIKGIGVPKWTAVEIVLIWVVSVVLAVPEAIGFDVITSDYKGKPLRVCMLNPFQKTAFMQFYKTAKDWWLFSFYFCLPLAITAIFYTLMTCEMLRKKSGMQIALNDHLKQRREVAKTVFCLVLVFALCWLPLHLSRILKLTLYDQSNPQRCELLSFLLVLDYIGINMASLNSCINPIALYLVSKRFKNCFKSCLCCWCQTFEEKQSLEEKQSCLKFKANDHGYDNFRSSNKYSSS
As to the kind of experiment: In vitro inhibition of [125 I]ET-1 binding to Endothelin B receptor (ETB-receptor) in rat cerebellum membranes. Type of data set: cell membranes, Membrane.

A short description of data set [3]: Water solubility at pH 7.5. Format: physicochemical.

The source of these data is ChEMBL document CHEMBL1135943, “Modifications and structure-activity relationships at the 2-position of 4-sulfonamidopyrimidine derivatives as potent endothelin antagonists” (Bioorg Med Chem Lett, 2002).

≈ marks a conversion by molar mass, not a printed value.

As usually defined, the IC50 is the point on the concentration scale where inhibition reaches its midpoint. In turn, `COc1ccccc1Oc1c(NS(=O)(=O)c2ccc(C(C)(C)C)cc2)nc(SCCO)nc1OCCOc1ncc(Br)cn1` had an IC50 on Endothelin-1 receptor of 0.15 nM.

For the compound `Cc1ccc(-c2c(NS(=O)(=O)c3ccc(C(C)(C)C)cc3)nc(-c3cccs3)nc2OCCOc2ncc(Br)cn2)cc1`, the IC50 on Endothelin-1 receptor amounted to 3.9 nM.

`COc1ccccc1Oc1c(NS(=O)(=O)c2ccc(C(C)(C)C)cc2)nc(SCCC(=O)O)nc1OCCOc1ncc(Br)cn1`: the half-inhibitory concentration (IC50) at Endothelin-1 receptor amounted to 10 nM.

The compound `COc1ccccc1Oc1c(NS(=O)(=O)c2ccc(C(C)(C)C)cc2)nc(N)nc1OCCOc1ncc(Br)cn1` had a 50% inhibitory concentration (IC50) on Endothelin-1 receptor greater than 10 nM.

In turn, `Cc1ccc(-c2c(NS(=O)(=O)c3ccc(C(C)(C)C)cc3)nc(-c3ccccc3)nc2OCCOc2ncc(Br)cn2)cc1` returned an IC50 on Endothelin-1 receptor greater than 10 nM.

For orientation: solubility means how much of the substance goes into solution per volume. A higher solubility goes with much dissolved substance. With `COc1ccccc1Oc1c(NS(=O)(=O)c2ccc(C(C)(C)C)cc2)nc(NCCO)nc1OCCOc1ncc(Br)cn1`, the solubility in data set [1] is 7320 µg/mL (≈ 10600 µM). Also, the values for the IC50 (in data set [2]; at Endothelin-1 receptor) were greater than 1 nM and 0.0053 nM, respectively.

Regarding `CNCCNc1nc(NS(=O)(=O)c2ccc(C(C)(C)C)cc2)c(Oc2ccccc2OC)c(OCCOc2ncc(Br)cn2)n1`, at Endothelin-1 receptor, the 50% inhibitory concentration (IC50) was greater than 10 nM.

With `Cc1ccc(-c2c(NS(=O)(=O)c3ccc(C(C)(C)C)cc3)nc(-c3ccccn3)nc2OCCOc2ncc(Br)cn2)cc1`, the IC50 on Endothelin-1 receptor was found to be 0.043 nM.

In turn, `COc1ccccc1Oc1c(NS(=O)(=O)c2ccc(C(C)(C)C)cc2)nc(N2CCC(O)CC2)nc1OCCOc1ncc(Br)cn1` displayed a solubility in data set [1] of 2570 µg/mL (≈ 3520 µM). The IC50 in data set [2] is greater than 1 nM; on Endothelin-1 receptor, 0.0025 nM.

`COc1ccccc1Oc1c(NS(=O)(=O)c2ccc(C(C)(C)C)cc2)nc(N(C)CCO)nc1OCCOc1ncc(Br)cn1`: on Endothelin-1 receptor, the IC50 was greater than 10 nM.

Take `COc1ccccc1Oc1c(NS(=O)(=O)c2ccc(C(C)(C)C)cc2)nc(NCCCO)nc1OCCOc1ncc(Br)cn1`: the IC50 on Endothelin-1 receptor was greater than 10 nM.

In turn, `COc1ccccc1Oc1c(NS(=O)(=O)c2ccc(C(C)(C)C)cc2)nc(OCCO)nc1OCCOc1ncc(Br)cn1` came in with an IC50 on Endothelin-1 receptor of 0.2 nM.

In turn, `COc1nc(NS(=O)(=O)c2ccc(C(C)(C)C)cc2)c(Oc2ccccc2OC)c(OCCOc2ncc(Br)cn2)n1` returned an IC50 at Endothelin-1 receptor greater than 10 nM.

Compound `COc1ccccc1Oc1c(NS(=O)(=O)c2ccc(C(C)(C)C)cc2)nc(C(F)(F)F)nc1OCCOc1ncc(Br)cn1` registered an IC50 on Endothelin-1 receptor greater than 10 nM.

`Cc1ccc(-c2c(NS(=O)(=O)c3ccc(C(C)(C)C)cc3)ncnc2OCCOc2ncc(Br)cn2)cc1`: at Endothelin-1 receptor, the IC50 is less than 0.001 nM. The same compound came in with a solubility in data set [3] of 1.6 µg/mL (≈ 2.67 µM).

`Cc1ccc(-c2c(NS(=O)(=O)c3ccc(C(C)(C)C)cc3)nc(C(C)C)nc2OCCOc2ncc(Br)cn2)cc1` yielded an IC50 on Endothelin-1 receptor of 1.1 nM.

In turn, `CCCc1nc(NS(=O)(=O)c2ccc(C(C)(C)C)cc2)c(-c2ccc(C)cc2)c(OCCOc2ncc(Br)cn2)n1` gave an IC50 on Endothelin-1 receptor of 1.6 nM.

Consider `CCCc1nc(NS(=O)(=O)c2ccc(C(C)(C)C)cc2)c(Oc2ccccc2OC)c(OCCOc2ncc(Br)cn2)n1`, for which, at Endothelin-1 receptor, the IC50 worked out at 0.026 nM.

With `COc1ccccc1Oc1c(NS(=O)(=O)c2ccc(C(C)(C)C)cc2)ncnc1OCCOc1ncc(Br)cn1`, in data set [1], the solubility is 160 µg/mL (≈ 254 µM). The compound further showed a half-maximal inhibitory concentration (IC50) in data set [2] greater than 1 nM.

Take `COc1ccccc1Oc1c(NS(=O)(=O)c2ccc(C(C)(C)C)cc2)nc(N2CCN(C)CC2)nc1OCCOc1ncc(Br)cn1`: the IC50 on Endothelin-1 receptor is 0.45 nM.

For the compound `COc1ccccc1Oc1c(NS(=O)(=O)c2ccc(C(C)(C)C)cc2)nc(C)nc1OCCOc1ncc(Br)cn1`, the IC50 on Endothelin-1 receptor is 2.7 nM. Compared with the last compound, the IC50 is about 6-fold higher.
